Data published in patent US11766044B2, “Method for controlling PPO resistant weeds” (BASF SE, priority 2016, dated 2023).

System: sensitive (w.7) and resistant weeds (w.8, w.9)
Format: in vivo, Amaranthus tuberculatus
Settings: table 3, 1 and 2 g/ha

CCOC(=O)COc1ncccc1Oc1cc(-n2c(=O)cc(C(F)(F)F)n(C)c2=O)c(F)cc1Cl [compound (I).1]
activity on both sensitive and resistant weeds: very good activity
